From paper PMC2955234 (Investigational New Drugs, 2009)
Like-named read-outs stand apart in the source and are kept apart here. Values belong to the compound of their own block, whether it stands above or below them.

Assays:
[1] = format: in vivo, human
lymphocyte = experiment: Drug lymphocyte stimulation test in the two patients with erythema multiforme; format: cell-based, human; conditions: both patients with erythema multiforme of cohort 1
Dose-limiting toxicity = format: in vivo, human; conditions: in combination with carboplatin AUC 5 mg min mL^−1 and paclitaxel 200 mg/m^2, Japanese patients with advanced NSCLC
[2] = Pharmacokinetics of sorafenib in plasma; format: in vivo; conditions: human, oral, 400 mg; for Cmax: C max
[3] = sorafenib at 400 mg twice daily
[4] = Cohort 2, dose-adjusted ratio cycle 2 relative to cycle 1

increases in the AUC and C max values after sorafenib administration [1, 3]: not statistically significant
SMILES: CC(=O)O[C@H]1C(=O)[C@@]2(C)[C@H]([C@H](OC(=O)c3ccccc3)[C@]3(O)C[C@H](OC(=O)[C@H](O)[C@@H](NC(=O)c4ccccc4)c4ccccc4)C(C)=C1C3(C)C)[C@]1(OC(C)=O)CO[C@@H]1[C@@H](O)[C@@H]2O [6-hydroxy-paclitaxel]

drug lymphocyte stimulation test result (lymphocyte): negative
AUC Ratio [90% CI] [1, 4]: 1.05 [0.88–1.25]
C max Ratio [90% CI] [1, 4]: 1.19 [0.80–1.77]
C max Ratio [90% CI] ([1]; Cohort 2, dose-adjusted ratio cycle 3 relative to cycle 1): 1.39 [0.88–2.21]
increases in the AUC and C max values after sorafenib administration [1, 3]: not statistically significant
SMILES: CC(=O)O[C@H]1C(=O)[C@@]2(C)[C@H]([C@H](OC(=O)c3ccccc3)[C@]3(O)C[C@H](OC(=O)[C@H](O)[C@@H](NC(=O)c4ccccc4)c4ccccc4)C(C)=C1C3(C)C)[C@]1(OC(C)=O)CO[C@@H]1C[C@@H]2O [Paclitaxel]

SMILES: CNC(=O)c1cc(Oc2ccc(NC(=O)Nc3ccc(Cl)c(C(F)(F)F)c3)cc2)ccn1 [Sorafenib]
drug lymphocyte stimulation test result (lymphocyte): positive
dose of sorafenib confirmed to be feasible (Dose-limiting toxicity): 400 mg once daily
AUC(0-t) ([2]; AUC0–12, Cohort 1, cycle 1, day 2, 400 mg sd (n = 6), geometric mean (% CV)): 18200 ng·h/mL
AUC(0-t) ([2]; AUC0–12, Cohort 2, cycle 1, day 2, 400 mg sd (n = 7), geometric mean (% CV)): 9000 ng·h/mL
AUC(0-t) ([2]; AUC0–12, Cohort 2, cycle 1, day 19, 400 mg od (n = 7), geometric mean (% CV)): 24400 ng·h/mL
AUC(0-t) ([2]; AUC0–12, Cohort 2, cycle 2, day 2, 400 mg sd (n = 6), geometric mean (% CV)): 14600 ng·h/mL
Cmax ([2]; Cohort 1, cycle 1, day 19, 400 mg bid (n = 3), geometric mean (% CV)): 4600 ng/mL
Cmax ([2]; Cohort 2, cycle 1, day 2, 400 mg sd (n = 7), geometric mean (% CV)): 1200 ng/mL
Cmax ([2]; Cohort 2, cycle 1, day 19, 400 mg od (n = 7), geometric mean (% CV)): 3200 ng/mL
Cmax ([2]; Cohort 2, cycle 2, day 19, 400 mg bid (n = 4), geometric mean (% CV)): 5900 ng/mL
half-life ([2]; mean t 1/2, on day 19, across cohorts and cycles): 20.4 to 26.8 h
half-life ([2]; t 1/2, Cohort 1, cycle 1, day 19, 400 mg bid (n = 3), geometric mean (% CV)): 20.4 h
half-life ([2]; t 1/2, Cohort 2, cycle 1, day 19, 400 mg od (n = 7), geometric mean (% CV)): 26.8 h
half-life ([2]; t 1/2, Cohort 2, cycle 2, day 19, 400 mg bid (n = 4), geometric mean (% CV)): 23.9 h

SMILES: N.N.O=C([O-])C1(C(=O)[O-])CCC1.[Pt+2] [carboplatin]
drug lymphocyte stimulation test result (lymphocyte): negative
effect of sorafenib on the pharmacokinetics [1, 3]: no effect
